Patent publication US12545639B2, “3-substituted phenylamidine compounds, preparation and use thereof” (PI INDUSTRIES LTD., priority 2019, dated 2026)

Assays:
[1] = test system: Botrytis cinerea; assay: Botrytis cinerea (gray mold) in vitro test, radial growth on potato dextrose agar; format: cell-based; details: 168 h, 300 ppm in potato dextrose agar, 22° C., 90% relative humidity, seven days, read-out: control compared to the untreated check (radial growth)
[2] = test system: Colletotrichum capsici; assay: Colletotrichum capsici (anthracnose) in vitro test, radial growth on potato dextrose agar; format: cell-based; details: Colletotrichum truncatum, 168 h; 300 ppm in potato dextrose agar; 25° C., 60% relative humidity, seven days; read-out: control compared to the untreated check (radial growth)
[3] = test system: Rhizoctonia solani; assay: Rhizoctonia solani (rice sheath blight/potato black scurf) in vitro test, radial growth on potato dextrose agar; format: cell-based; details: 168 h, 300 ppm in potato dextrose agar, 25° C., 60% relative humidity, seven days, read-out: control compared to the untreated check (radial growth)
[4] = test system: Alternaria solani; assay: Alternaria solani (early blight of tomato/potato) in vitro test, radial growth on potato dextrose agar; format: cell-based; details: 168 h, 300 ppm in potato dextrose agar, 25° C., 60% relative humidity, seven days, read-out: control compared to the untreated check (radial growth)
[5] = test system: Pyricularia oryzae; assay: microbe, parasite or virus in culture; format: cell-based; details: 168 h, read-out: control compared to the untreated check (radial growth)
[6] = test system: Phakopsora pachyrhizi; assay: Phakopsora pachyrhizi test in soybean, preventive, in vivo on plants; details: in Glycine max, read-out: Efficacy (% control), disease severity compared to the untreated check
[7] = test system: Septoria lycopersici/Corynespora cassicola (CORYCA); assay: Septoria lycopersici/Corynespora cassicola (CORYCA) (leaf spot of tomato) in vitro test, radial growth on potato dextrose agar; format: cell-based; details: 168 h, 300 ppm in potato dextrose agar, 25° C., 70% relative humidity, seven days, read-out: control compared to the untreated check (radial growth)

CCN(C)C=Nc1cc(Cl)cc(Cc2cccc(Br)c2)c1C [Compound 245, N′-(3-(3-bromobenzyl)-5-chloro-2-methylphenyl)-N-ethyl-N-methylformimidamide]
≥ 70%: inhibition of growth at 300 ppm [1] | inhibition of growth at 300 ppm [2] | inhibition of growth at 300 ppm [3] | inhibition of growth at 300 ppm [4] | inhibition of growth at 300 ppm [5]

CCN(C)C=Nc1cc(C)cc(Cc2ccc(Br)cc2)c1Cl [Compound 93, N′-(3-(4-bromobenzyl)-2-chloro-5-methylphenyl)-N-ethyl-N-methylformimidamide]
≥ 70%: inhibition of growth at 300 ppm [1] | inhibition of growth at 300 ppm [2] | inhibition of growth at 300 ppm [3] | inhibition of growth at 300 ppm [4] | inhibition of growth at 300 ppm [5] | pest or weed control at 500 ppm [6]

CCN(C)C=Nc1cc(Cl)cc(NCc2cccc(Cl)c2)c1C [Compound 183, N′-(5-chloro-3-((3-chlorobenzyl)amino)-2-methylphenyl)-N-ethyl-N-methylformimidamide]
≥ 70%: inhibition of growth at 300 ppm [1] | inhibition of growth at 300 ppm [2] | inhibition of growth at 300 ppm [3] | inhibition of growth at 300 ppm [4] | inhibition of growth at 300 ppm [5] | pest or weed control at 500 ppm [6]

CCN(C)C=Nc1cc(F)cc(Nc2ccc(OC)c(F)c2)c1C [Compound 254, N-ethyl-N′-(5-fluoro-3-((3-fluoro-4-methoxyphenyl)amino)-2-methylphenyl)-N-methylformimidamide]
≥ 70%: inhibition of growth at 300 ppm [2] | inhibition of growth at 300 ppm [3] | inhibition of growth at 300 ppm [4] | inhibition of growth at 300 ppm [5]

CCN(C)C=Nc1cc(C)cc(N(C)c2cccc(Cl)c2)c1Cl [Compound 41, N′-(2-chloro-3-((3-chlorophenyl)(methyl)amino)-5-methylphenyl)-N-ethyl-N-methylformimidamide]
≥ 70%: inhibition of growth at 300 ppm [1] | inhibition of growth at 300 ppm [2] | inhibition of growth at 300 ppm [4] | inhibition of growth at 300 ppm [5] | pest or weed control at 500 ppm [6]

CCN(C)C=Nc1cc(C)cc(Nc2ccc(OC)c(F)c2)c1Cl [Compound 255, N′-(2-chloro-3-((3-fluoro-4-methoxyphenyl)amino)-5-methylphenyl)-N-ethyl-N-methylformimidamide]
≥ 70%: inhibition of growth at 300 ppm [2] | inhibition of growth at 300 ppm [3] | inhibition of growth at 300 ppm [4] | inhibition of growth at 300 ppm [5] | pest or weed control at 500 ppm [6]

CCN(C)C=Nc1cc(C)cc(N(C)c2ccccc2F)c1C [Compound 7, N-ethyl-N′-(3-((2-fluorophenyl)(methyl)amino)-2,5-dimethylphenyl)-N-methylformimidamide]
≥ 70%: inhibition of growth at 300 ppm [2] | inhibition of growth at 300 ppm [3] | inhibition of growth at 300 ppm [4] | inhibition of growth at 300 ppm [5]

CCN(C)C=Nc1cc(Cl)cc(Cc2ccccc2Br)c1C [Compound 90, N′-(3-(2-bromobenzyl)-5-chloro-2-methylphenyl)-N-ethyl-N-methylformimidamide]
≥ 70%: inhibition of growth at 300 ppm [1] | inhibition of growth at 300 ppm [2] | inhibition of growth at 300 ppm [3] | inhibition of growth at 300 ppm [4] | inhibition of growth at 300 ppm [5] | pest or weed control at 500 ppm [6]

CCN(C)C=Nc1cc(F)cc(Cc2ccc(Cl)cc2)c1C [Compound 172, N′-(3-(4-chlorobenzyl)-5-fluoro-2-methylphenyl)-N-ethyl-N-methylformimidamide]
≥ 70%: inhibition of growth at 300 ppm [1] | inhibition of growth at 300 ppm [2] | inhibition of growth at 300 ppm [3] | inhibition of growth at 300 ppm [4] | inhibition of growth at 300 ppm [5]

CCN(C)C=Nc1cc(F)cc(N(C)c2cc(Cl)ccc2C)c1C [Compound 98, N′-(3-((5-chloro-2-methylphenyl)(methyl)amino)-5-fluoro-2-methylphenyl)-N-ethyl-N-methylformimidamide]
≥ 70%: inhibition of growth at 300 ppm [1] | inhibition of growth at 300 ppm [2] | inhibition of growth at 300 ppm [3] | inhibition of growth at 300 ppm [4] | inhibition of growth at 300 ppm [5] | pest or weed control at 500 ppm [6]

CCN(C)C=Nc1cc(C)cc(Cc2ccccc2Br)c1Cl [Compound 45, N′-(3-(2-bromobenzyl)-2-chloro-5-methylphenyl)-N-ethyl-N-methylformimidamide]
≥ 70%: inhibition of growth at 300 ppm [1] | inhibition of growth at 300 ppm [2] | inhibition of growth at 300 ppm [3] | inhibition of growth at 300 ppm [4] | inhibition of growth at 300 ppm [5] | pest or weed control at 500 ppm [6]

CCN(C)C=Nc1cc(F)cc(N(C)c2cccc(OC)c2)c1C [Compound 39, N-ethyl-N′-(5-fluoro-3-((3-methoxyphenyl)(methyl)amino)-2-methylphenyl)-N-methylformimidamide]
≥ 70%: inhibition of growth at 300 ppm [2] | inhibition of growth at 300 ppm [4] | inhibition of growth at 300 ppm [5] | pest or weed control at 500 ppm [6]

CCN(C)C=Nc1cc(C)cc(Nc2ccc(F)cc2F)c1Cl [Compound 75, N′-(2-chloro-3-((2,4-difluorophenyl)amino)-5-methylphenyl)-N-ethyl-N-methylformimidamide]
≥ 70%: inhibition of growth at 300 ppm [2] | inhibition of growth at 300 ppm [3] | inhibition of growth at 300 ppm [4] | inhibition of growth at 300 ppm [5]

CCN(C)C=Nc1cc(Cl)cc(Cc2ccccc2C(F)(F)F)c1C [Compound 244, N′-(5-chloro-2-methyl-3-(2-(trifluoromethyl)benzyl)phenyl)-N-ethyl-N-methylformimidamide]
≥ 70%: inhibition of growth at 300 ppm [1] | inhibition of growth at 300 ppm [2] | inhibition of growth at 300 ppm [3] | inhibition of growth at 300 ppm [4] | inhibition of growth at 300 ppm [5]

CCN(C)C=Nc1cc(C)cc(N(C)c2ccc(Cl)cc2F)c1Cl [Compound 156, N′-(2-chloro-3-((4-chloro-2-fluorophenyl)(methyl)amino)-5-methylphenyl)-N-ethyl-N-methylformimidamide]
≥ 70%: inhibition of growth at 300 ppm [2] | inhibition of growth at 300 ppm [4] | pest or weed control at 500 ppm [6]

CCN(C)C=Nc1cc(C)cc(Nc2ccc(OC)cc2)c1Cl [Compound 61, N′-(2-chloro-3-((4-methoxyphenyl)amino)-5-methylphenyl)-N-ethyl-N-methylformimidamide]
≥ 70%: inhibition of growth at 300 ppm [2] | inhibition of growth at 300 ppm [3] | inhibition of growth at 300 ppm [4] | inhibition of growth at 300 ppm [5]

CCN(C)C=Nc1cc(C)cc(Cc2cccc(C#N)c2)c1Cl [Compound 48, N′-(2-chloro-3-(3-cyanobenzyl)-5-methylphenyl)-N-ethyl-N-methylformimidamide]
≥ 70%: inhibition of growth at 300 ppm [2] | inhibition of growth at 300 ppm [3] | inhibition of growth at 300 ppm [4] | inhibition of growth at 300 ppm [5]

CCN(C)C=Nc1cc(C)cc(Cc2cccc(Cl)c2)c1Cl [Compound 27, N′-(2-chloro-3-(3-chlorobenzyl)-5-methylphenyl)-N-ethyl-N-methylformimidamide]
≥ 70%: inhibition of growth at 300 ppm [1] | inhibition of growth at 300 ppm [2] | inhibition of growth at 300 ppm [3] | inhibition of growth at 300 ppm [4]

CCN(C)C=Nc1cc(F)cc(Nc2ccc3ncsc3c2)c1C [Compound 225, N′-(3-(benzo[d]thiazol-6-ylamino)-5-fluoro-2-methylphenyl)-N-ethyl-N-methylformimidamide]
≥ 70%: inhibition of growth at 300 ppm [2] | inhibition of growth at 300 ppm [4] | inhibition of growth at 300 ppm [5]

CCN(C)C=Nc1cc(C)cc(N(C)c2cccc(C)c2F)c1Cl [Compound 139, N′-(2-chloro-3-((2-fluoro-3-methylphenyl)(methyl)amino)-5-methylphenyl)-N-ethyl-N-methylformimidamide]
≥ 70%: inhibition of growth at 300 ppm [2] | inhibition of growth at 300 ppm [5]

CCN(C)C=Nc1cc(C)cc(N(C)c2cccc(F)c2)c1Cl [Compound 40, N′-(2-chloro-3-((3-fluorophenyl)(methyl)amino)-5-methylphenyl)-N-ethyl-N-methylformimidamide]
≥ 70%: inhibition of growth at 300 ppm [1] | inhibition of growth at 300 ppm [2] | inhibition of growth at 300 ppm [4] | inhibition of growth at 300 ppm [5] | pest or weed control at 500 ppm [6]

CCN(C)C=Nc1cc(C)cc(N(C)c2ccc(Cl)cc2)c1Cl [Compound 62, N′-(2-chloro-3-((4-chlorophenyl)(methyl)amino)-5-methylphenyl)-N-ethyl-N-methylformimidamide]
≥ 70%: inhibition of growth at 300 ppm [1] | inhibition of growth at 300 ppm [2] | inhibition of growth at 300 ppm [4]

CCN(C)C=Nc1cc(F)cc(Cc2ccccc2C)c1C [Compound 148, N-ethyl-N′-(5-fluoro-2-methyl-3-(2-methylbenzyl)phenyl)-N-methylformimidamide]
≥ 70%: inhibition of growth at 300 ppm [1] | inhibition of growth at 300 ppm [7] | inhibition of growth at 300 ppm [3] | inhibition of growth at 300 ppm [4] | inhibition of growth at 300 ppm [5] | pest or weed control at 500 ppm [6]

CCN(C)C=Nc1cc(F)cc(Cc2ccc(C)cc2)c1C [Compound 171, N-ethyl-N′-(5-fluoro-2-methyl-3-(4-methylbenzyl)phenyl)-N-methylformimidamide]
≥ 70%: inhibition of growth at 300 ppm [1] | inhibition of growth at 300 ppm [2] | inhibition of growth at 300 ppm [3] | inhibition of growth at 300 ppm [4] | inhibition of growth at 300 ppm [5]
